Measurements: US20250205195A1, “BENZYLOXY-BENZYLAMINYL AMINO ACID DERIVATIVE FOR ADJUSTING TSLP/TSLPR SIGNAL TRANSMISSION” (AMTIXBIO CO., LTD., priority 2021, published 2025)

Experiments:
interleukin-4 (IL-4) = assay: PMA/ionomycin-induced interleukin-4 in RBL-2H3 cells (ELISA); assay type: cell-based, rat; details: RBL-2H3 cells, 0, 1, 2, 4 and 8 µg/mL, 24 h
Experimental: Rat basophilic leukemia cells RBL-2H3 (obtained from the Korean Cell Line Bank) were seeded at an initial density of 2×10^5 cells/well in a 48-well plate and cultured at 37° C. for 16 to 24 hours. Subsequently, compound 27 of the present invention was added to the RBL-2H3 cell culture medium at final concentrations of 0, 1, 2, 4, and 8 µg/mL and the cells were cultured at 37° C. for 1 hour. Next, to induce interleukin-4, the culture medium was treated with PMA ([…], Sigma-Aldrich, USA) and ionomycin (Sigma-Aldrich, USA) to final concentrations of 50 ng/mL and […], respectively, and the cells were cultured for an additional 24 hours at 37° C. The culture supernatant was then collected, and the amount of induced interleukin-4 from RBL-2H3 cells was determined using an ELISA kit (LABIS KOMA, South Korea) according to the manufacturer's instructions. FIG. 2 (a) represents the results.

interleukin-6 (IL-6) = assay: TNF-α/IFN-induced interleukin-6 in HaCaT keratinocytes (ELISA); assay type: cell-based, human; details: HaCaT cells, 0, 1, 2, 4 and 8 µg/mL, TNF-α and IFN 50 ng/mL each, 24 h
Experimental: Furthermore, human keratinocyte HaCaT cells (obtained from the Korean Cell Line Bank) were seeded at an initial density of 2×10^5 cells/well in a 12-well plate and cultured at 37° C. for 16 to 24 hours. The compound 27 of the present invention was then added to the HaCaT cell culture medium at final concentrations of 0, 1, 2, 4, and 8 µg/mL and the cells were cultured at 37° C. for 1 hour. Subsequently, to induce interleukin-6, the culture medium was treated with TNF-α (Sigma-Aldrich, USA) and […] (Sigma-Aldrich, USA) to final concentrations of 50 ng/mL each, and the cells were cultured for an additional 24 hours at 37° C. Next, the culture supernatant was collected, and the amount of induced interleukin-6 from HaCaT cells was determined using an ELISA kit (LABIS KOMA, South Korea) according to the manufacturer's instructions.
Human keratinocyte HaCaT cells (obtained from the Korean Cell Line Bank) were seeded in a 12-well plate at an initial density of 2×10^5 cells/well and cultured at 37° C. for 16 to 24 hours. […] The culture supernatant was collected, and the amount of induced interleukin-6 from HaCaT cells was determined using an ELISA kit (LABIS KOMA, South Korea) according to the manufacturer's instructions.

skin-specific T cells = assay: FACS analysis of T cell fractions in skin tissue isolated from atopic dermatitis patients; assay type: cell-based, human; details: patient skin tissue, 16 g/mL, 8 g/mL
Source text: For tissues isolated from the skin of atopic dermatitis patients (Yonsei Severance Hospital, South Korea) followed by the treatment of the compound 27 of the present invention, T cell fractions were compared, and the results are presented in FIG. 16 (Data are shown as mean standard deviation (SD). ** P<0.01, * P<0.05).

interleukin-13 (IL-13) = assay: PMA/ionomycin-induced interleukin-13 in RBL-2H3 cells (ELISA); assay type: cell-based, rat; details: RBL-2H3 cells, 0, 1, 2, 4 and 8 µg/mL, 24 h
Experimental: RBL-2H3 cells were seeded at an initial density of 2×10^5 cells/well in a 24-well plate and cultured at 37° C. for 16 to 24 hours. Subsequently, compound 27 of the present invention was added to the RBL-2H3 cell culture medium at final concentrations of 0, 1, 2, 4, and 8 µg/mL, and the cells were cultured at 37° C. for 1 hour. Next, to induce interleukin-13, the culture medium was treated with PMA ([…], Sigma-Aldrich, USA) and ionomycin (Sigma-Aldrich, USA) to final concentrations of 50 ng/mL and […], respectively, and the cells were cultured for an additional 24 hours at 37° C. The culture supernatant was then collected, and the amount of induced interleukin-13 from RBL-2H3 cells was determined using an ELISA kit (R&D Systems, USA) according to the manufacturer's instructions. FIG. 2 (b) represents the results. […] This indicates the anti-inflammatory effect of compound 27 of the present invention.

TSLP = assay: TNF-α-induced TSLP in HaCaT cells (ELISA); assay type: cell-based, human
Experimental: Human keratinocyte HaCaT cells (obtained from the Korean Cell Line Bank) were seeded in a 12-well plate at an initial density of 2×10^5 cells/well and cultured at 37° C. for 16 to 24 hours. FK506 (Sigma), compounds 27 and 29 of the present invention were then added to the HaCaT cell culture medium at final concentrations of 0, 1, 2, 4, and 8 µg/mL, and the cells were cultured at 37° C. for 1 hour. Next, to induce TSLP, the culture medium was treated with TNF-α (Sigma-Aldrich, USA) to a final concentration of 100 ng/mL, and the cells were cultured for an additional 24 hours at 37° C. The culture supernatant was collected, and the amount of induced TSLP from HaCaT cells was determined using an ELISA kit (R&D Systems, USA) according to the manufacturer's instructions. […] Under the same conditions, to compare the TSLP reduction efficiency R.R. (Reduction rate) of compound 27, positive control compound and compound 29, equal amounts of compounds 27, 29 and FK506 (Sigma-Aldrich, USA) were pretreated for 1 hour. The amount of TSLP released into the culture supernatant from HaCaT cells stimulated by TNF-α was quantitatively analyzed and presented in Table 3 and FIG. 3 (c).

[1] = system: DNFB-induced atopic dermatitis mice; assay: DNFB-induced atopic dermatitis mouse model, itch scratching test; assay type: in vivo, ICR mice; details: 1˜10 mg/kg, ip, po or topical, daily for one week, 30 min recording, vs control group
Experimental: ICR mice (Supplier: Koatech, Gyeonggi, South Korea, Male, 9 weeks old) were used. After acclimatization to the environment for one week, the mice were divided into treatment and control groups, and then hair was removed from the area (dorsal area) where the drug was applied on day 0, 0.5% DNFB (50 μL) diluted in 99% acetone, was applied to the dorsal area. Subsequently, on days 5, 8, 10 and 14, additional applications of 0.2% DNFB (20 μL) were applied to induce atopic dermatitis. After 7 days of DNFB treatment, once skin lesions were confirmed in all mice, compound 27 of the present invention was administered daily for one week via intraperitoneal (ip), oral (po), or topical (dermal) routes.
For the groups treated with the compound 27 of the present invention (1˜10 mg/kg) and the control group, mice were separated on days 5, 8, 11 and 15, acclimatized for 1 hour, and their scratching behavior patterns were recorded and analyzed for 30 minutes.

[2] = HaCaT culture supernatant, TNF-α stimulated, 1 h pretreatment, equal amounts of compounds

Compound: CCC(NC)C(=O)NCc1ccc(OCc2ccc(C(F)(F)F)cc2)cc1 (racemic) [Compound 27, (R)/(S)-2-(methylamino)-N-(4-((4-trifluoromethyl)benzyl)oxy)benzyl)butanamide]
- amount of induced interleukin-4 (interleukin-4 (IL-4)): decreased proportionally
- amount of induced interleukin-6 (interleukin-6 (IL-6)): decreased
- CD69+ T cells and CD103+ T cells (skin-specific T cells): remarkable reduction
- proportion of skin-specific T cells (skin-specific T cells): concentration-dependent significant decrease
- amount of induced interleukin-13 (interleukin-13 (IL-13)): decreased proportionally
- amount of induced TSLP with increasing concentration (TSLP; HaCaT cells, 0, 1, 2, 4 and 8 µg/mL, TNF-α 100 ng/mL, 24 h): decreased
- R.R (Reduction rate) of TSLP (TSLP; [2]): 54%
- TSLP (TSLP; [2]): 234 ng/mL
- scratching frequency [1]: significantly decreased
